Experimental findings from patent US20050054629A1, “Compounds and methods of treating cell proliferative diseases” (priority 2002, published 2005) are described below.

Read-outs that look alike come from different tables or passages of the source.

The test system of experiment [1] is HCT116. The experiment can be described thus: Cytoskeleton analysis, actin staining (FITC-phalloidin). To be noted: HCT116 tumor cells. Type of experiment: cell-based, human. As for the experimental part: (§1) Since major rearrangements of cytoskeleton are observed in tumor cells and since the small GTPases are known to regulate these events, analysis of actin cytoskeleton was performed. Subconfluent cells seeded onto coverslips were treated with different concentration of compound (1, 10, 17.5, 25 and 50 μM) or vehicle for 24 h, before being fixed in 4% formaldehyde for 15 min., permeabilized in 0.2% Triton X100 for 5 minutes and incubated in PowerBlock (Biogenex) for 10 min. Actin filaments were stained with 0.5 μg/ml fluorescein isothiocyanate (FITC)-labelled phalloidin for 1 hour. Analysis was performed using an inverted fluorescent microscope.

Experiment [2] deals with H460. The experiment is described as above. Type of experiment: cell-based, human. To be noted: H460 tumor cells. As for the experimental part: as §1
In experiment [3] the test system is HCT116 colon adenocarcinoma. The experiment can be described thus: Cytotoxicity assay (MTT), 6 days. Format: cell-based, human. To be noted: 6 days of treatment, read-out: Toxicity 6d (IC 50, μM) HCT116. The procedure, abridged: (§2)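 Six-day continuous treatment (0–50 μM; final DMSO 1%), then MTT (0.5 mg/ml, 3 h, 37° C) with DMSO-dissolved formazan read at 550 nm. Surviving fraction and IC50 determined.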

The subject of experiment [4] is NIH3T3 mouse fibroblasts. The experiment is described as follows: Cytotoxicity assay (MTT), 6 days. Format: cell-based. To be noted: NIH3T3, 144 h, 6 days of treatment, read-out: Toxicity 6d (IC 50, μM) NIH3T3. Put shortly: as §2
For experiment [5], the system named is MCF-7 breast carcinoma. The experiment can be described thus: Cytotoxicity assay (MTT), 6 days. Type of experiment: cell-based. To be noted: Homo sapiens, MCF7, 144 h, 6 days of treatment, read-out: Toxicity 6d (IC 50, μM) MCF7. The procedure, abridged: as §2
Experiment [6] deals with MCF10-A. The experiment can be described thus: Cytotoxicity assay (MTT), 6 days. To be noted: Homo sapiens, MCF-10A, 144 h, 6 days of treatment, read-out: Toxicity 6d (IC 50, μM) MCF10-A. Format: cell-based. Put shortly: as §2
For experiment [7], the system named is H460 lung carcinoma. The experiment can be described thus: Cytotoxicity assay (MTT), 6 days. To be noted: Homo sapiens, NCI-H460, 144 h, 6 days of treatment, read-out: Toxicity 6d (IC 50, μM) H460. Format: cell-based. Put shortly:
as §2

The subject of experiment [8] is MDA-MB-231 breast carcinoma. The experiment is described as follows: Cytotoxicity assay (MTT), 6 days. Format: cell-based. To be noted: Homo sapiens, MDA-MB-231, 144 h, 6 days of treatment, read-out: Toxicity 6d (IC 50, μM) MDA231. The procedure, abridged: as §2
Experiment [9] concerns MDA231. The experiment can be described thus: Cytoskeleton analysis, actin staining (FITC-phalloidin). Type of experiment: cell-based, human. The protocol: as §1
Experiment [10] concerns MRC-5. The experiment is described as follows: Cytotoxicity assay (MTT), 6 days. Format: cell-based. To be noted: Homo sapiens, MRC5, 144 h, 6 days of treatment, read-out: Toxicity 6d (IC 50, μM) MRC-5. Put shortly: as §2

Turning to `C/C=C/c1oc(CO)cc(=O)c1OCCCCCOc1ccc(Cl)c(Cl)c1CCC` [EH31101, (E)-3-[5-(3,4-Dichloro-2-propylphenyloxy)pentyloxy]-6-(hydroxymethyl)-2-(propen-1-yl)-4H-pyran-4-one], the “concentration at which dose-dependant increase in spreading and disruption of cell-to-cell junctions was observed” value in experiment [1] worked out at 10 µM; in experiment [2], 25 µM. For the same compound, the IC50 in [3] (Homo sapiens, HCT-116, 144 h) was 30 µM; in [4], over 50 µM; in experiment [5] it was 25 µM; in experiment [6], 35 µM; in experiment [7] it was 25 µM; in experiment [8] it was 25 µM.

As to `CCCc1c(OCCCCCOc2coc(CO)cc2=O)ccc(Cl)c1Cl` [EH22900, 5-[5-(3,4-Dichloro-2-propylphenyloxy)pentyloxy]-2-(hydroxymethyl)-4H-pyran-4-one], the MDA-MB-231 spreading result in experiment [9] is “increased”. In addition, the “Cell architecture modification actin staining MDA231” value in experiment [9] (24 h treatment) is “cell spreading”. Besides, the IC50 was 10 µM in experiment [3]; at most 15 µM in [3] (Homo sapiens, HCT-116, 144 h); 30 µM in [4]; 50 µM in [5]; over 50 µM in experiment [6]; 15 µM in [7]. The IC50 in experiment [10] worked out at 25 µM; in experiment [8] it was 30 µM.
